Experimental data published in patent publication USRE38132E1, “Phenylpyrrolidines, phenylimidazolidines,3-phenyl-1,3-oxizolidines and 3-phenyl-1,3-thiazolidines and their use in the treatment of inflammatory disease” (Boehringer Ingelheim Pharmaceuticals, Inc., priority 1997, dated 2003).
Where two headings read alike, the source gives them in different places.

What was measured:
[1] = system: cell bound form of LFA-1 (CD18, CD11a) with ICAM-1, SKW3 cells; assay: Inhibition of SKW3 cell binding to ICAM-1 (PMA-stimulated); assay type: cell-based, human; settings: Homo sapiens, read-out: Assay to Detect SKW3 Cells Binding to ICAM IC50
Description: (§1) Assay to Determine Inhibition of SKW3 cell binding to ICAM-1 vs. Binding to Fibronectin
(§2) This assay is used to test the selective ability of a test compound to antagonize the interaction of a cell bound form of LFA-1 with ICAM-1. The assay uses a human T cell line, SKW3 cells which express CD18, CD11a and other integrins not related to CD18, CD11a and which can be “activated” by phorbol esters. Phorbol esters enhance the affinity of CD18, CD11a for ICAM-1.
(§3) This same lymphocyte line, SKW3, also adheres to fibronectin in the presence of phorbol esters. This adhesion is mediated by membrane proteins independent of the LFA-1/ICAM-1 interaction. The SKW3 cells express another integrin, VLA4, which is the receptor for fibronectin. Therefore, as a preliminary indication of the selectivity of a test compounds to interfere with Leukointegrin/CAM interactions but not other integrin-ligand binding events, a compound can be tested for its ability to antagonize cell bound fibronectin receptor in its interaction with purified fibronectin. Compounds that inhibit this fibronectin adhesion are not specific antagonists of the CD18, CD11a/ICAM-1 binding.
(§4) Description of Assay Protocol:
(§5) Ninety-six well plates are coated with either sICAM-1(40 μg/mL) or fibronectin (100 μg/mL) in Diluting buffer for 1 h at room temperature. Added to the wells are 100 μL of the appropriately diluted test compound or 100 μL of RPMI with 15% fetal bovine serum as a control. SKW3 cells, which express CD18, CD11a and VLA4 (Dustin, M.; et al., J. Exp. Med. 1987, 165, 672-692) are washed and suspended to a concentration of 10^6 cells/mL in RPMI with 15% fetal bovine serum. Immediately before adding the cells to the wells, cells are stimulated with the phorbol ester 12-myristate 13-acetate (PMA) for a final concentration of […]. 100 μL of cells are then added to the wells resulting in a final concentration of […]. The plates are incubated for 2 h at 37° C. Unbound or loosely bound cells are gently washed away with RPMI.
(§6) Data are reported as the concentration or concentration range (in μM) at which 50% of binding is inhibited.

[2] = molecular target: T1, interaction of ICAM-1 with the Leukointegrin CD18/CD11a (LFA-1) (Homo sapiens, UniProt P05107+P20701); assay: Assay to determine inhibition of LFA-1 binding to ICAM-1 (immunopurified LFA-1 on plate-bound sICAM-1, ELISA readout)
T1 construct: endogenous in cells; sICAM-1: made in house, secreted from transfected CHO DUX cells

[3] = system: cell bound fibronectin receptor (VLA4) with fibronectin, SKW3 cells; assay: Inhibition of SKW3 cell binding to fibronectin (selectivity counter-assay); assay type: cell-based, human; settings: for IC50: Homo sapiens, SKW3, values marked c: no inhibition observed up to highest dose, read-out: Assay to Detect SKW3 Cells Binding to FIBRONECTIN IC50
Description: as §1, §2, §3, §4, §5, §6

[4] = No inh = no inhibition observed up to highest dose, exact quantification not always possible due to intrinsic toxicity
[5] = values marked e approximated from incomplete dose-response curve
[6] = SKW3, values marked c: no inhibition observed up to highest dose
[7] = values marked c: no inhibition observed up to highest dose

T1 sequence (P20701 26-1170): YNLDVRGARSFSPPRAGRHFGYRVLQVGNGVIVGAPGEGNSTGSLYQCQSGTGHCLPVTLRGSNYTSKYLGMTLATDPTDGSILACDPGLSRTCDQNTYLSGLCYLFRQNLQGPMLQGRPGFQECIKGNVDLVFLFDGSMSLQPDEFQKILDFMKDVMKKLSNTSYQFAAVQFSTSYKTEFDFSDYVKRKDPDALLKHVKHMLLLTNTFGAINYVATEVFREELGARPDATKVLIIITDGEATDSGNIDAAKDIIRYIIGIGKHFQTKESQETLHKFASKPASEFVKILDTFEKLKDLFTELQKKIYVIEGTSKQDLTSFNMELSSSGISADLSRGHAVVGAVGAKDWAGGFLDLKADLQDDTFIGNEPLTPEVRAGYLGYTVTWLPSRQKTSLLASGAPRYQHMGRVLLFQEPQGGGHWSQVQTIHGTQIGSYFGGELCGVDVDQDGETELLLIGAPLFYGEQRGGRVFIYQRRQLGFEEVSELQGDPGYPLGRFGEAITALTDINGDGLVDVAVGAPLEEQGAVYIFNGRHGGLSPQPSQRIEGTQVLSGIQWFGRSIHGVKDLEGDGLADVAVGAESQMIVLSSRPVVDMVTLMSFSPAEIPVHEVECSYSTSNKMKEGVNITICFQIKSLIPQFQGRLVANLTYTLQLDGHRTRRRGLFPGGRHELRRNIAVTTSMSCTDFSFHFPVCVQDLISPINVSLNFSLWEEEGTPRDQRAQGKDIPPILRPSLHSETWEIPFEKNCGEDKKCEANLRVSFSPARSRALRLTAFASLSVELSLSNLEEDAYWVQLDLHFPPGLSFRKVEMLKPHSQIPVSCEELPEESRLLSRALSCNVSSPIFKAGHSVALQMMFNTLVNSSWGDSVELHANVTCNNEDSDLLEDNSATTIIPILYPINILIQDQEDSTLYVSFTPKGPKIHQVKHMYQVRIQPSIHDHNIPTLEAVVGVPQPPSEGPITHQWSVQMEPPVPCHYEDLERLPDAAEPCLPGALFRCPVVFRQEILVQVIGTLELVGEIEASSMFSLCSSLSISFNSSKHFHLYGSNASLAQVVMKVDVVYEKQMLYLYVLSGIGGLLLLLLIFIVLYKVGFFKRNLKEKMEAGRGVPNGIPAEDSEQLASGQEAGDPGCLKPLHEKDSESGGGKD
T1 sequence (P05107 23-769): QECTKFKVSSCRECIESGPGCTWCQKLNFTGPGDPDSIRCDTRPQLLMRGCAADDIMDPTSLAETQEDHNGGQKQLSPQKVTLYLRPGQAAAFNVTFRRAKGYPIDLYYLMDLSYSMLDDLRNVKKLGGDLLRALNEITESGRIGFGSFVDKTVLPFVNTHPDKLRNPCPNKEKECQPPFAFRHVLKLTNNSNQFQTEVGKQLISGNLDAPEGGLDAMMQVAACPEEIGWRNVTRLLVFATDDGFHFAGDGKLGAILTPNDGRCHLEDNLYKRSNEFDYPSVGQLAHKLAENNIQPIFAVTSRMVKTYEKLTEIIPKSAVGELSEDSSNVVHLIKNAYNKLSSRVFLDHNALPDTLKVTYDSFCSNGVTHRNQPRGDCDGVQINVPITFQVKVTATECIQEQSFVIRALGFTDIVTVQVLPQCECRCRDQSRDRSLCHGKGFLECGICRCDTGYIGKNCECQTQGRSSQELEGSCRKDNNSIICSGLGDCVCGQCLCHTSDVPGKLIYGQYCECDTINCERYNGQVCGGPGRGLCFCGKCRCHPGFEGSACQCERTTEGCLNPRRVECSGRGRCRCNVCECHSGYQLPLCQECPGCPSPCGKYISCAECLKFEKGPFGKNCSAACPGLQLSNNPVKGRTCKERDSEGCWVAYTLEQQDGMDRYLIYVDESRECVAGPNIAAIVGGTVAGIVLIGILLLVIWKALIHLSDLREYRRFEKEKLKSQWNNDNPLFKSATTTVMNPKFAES

| SMILES | Kd [2, 5] [µM] | Cellular Toxicity Assay MTT LD50 (SKW3 cells) [µM] | also measured |
| --- | --- | --- | --- |
| C[C@H](c1ccccc1)[C@]1(C)C(=O)N(c2cc(Cl)cc(Cl)c2)C(=O)N1C [Example 269] | – | 250 to 500 | IC50 ([1]; SKW3): 25 µM; Kd [2]: 0.29 µM; Assay to Detect SKW3 Cells Binding to FIBRONECTIN IC50 [3, 4]: No inh^c |
| O=C1NC(CCc2ccccc2)C(=O)N1c1cc(Cl)cc(Cl)c1 (centres unmarked) [Example 12] | 1.75 | 125 to 250 | – |
| COc1ccc(CC2NC(=O)N(c3cc(Cl)cc(Cl)c3)C2=O)cc1 (centres unmarked) [Example 8] | 2.86 | 125 to 500 | – |
| CC1(Cc2ccccc2)NC(=O)N(c2cc(C(F)(F)F)cc(C(F)(F)F)c2)C1=O (centres unmarked) [Example 16] | 0.85 | 63 to 125 | IC50 [1, 6]: 19 to 38 µM; IC50 [3]: > 75 µM |
| O=C1NC(Cc2ccc([N+](=O)[O-])cc2)C(=O)N1c1cc(Cl)cc(Cl)c1 (centres unmarked) [Example 7] | 1.33 | 250 to 500 | IC50 [1, 6]: 50 to 100 µM; Assay to Detect SKW3 Cells Binding to FIBRONECTIN IC50 [3, 7]: No inh^c |
| O=C1N[C@@H](Cc2ccccc2)C(=O)N1c1cc(Cl)cc(Cl)c1 [Example 14] | 12.7 | 125 to 250 | IC50 [1, 6]: 63 to 125 µM; IC50 [3]: > 125 µM |
| C[C@@H](c1ccccc1)[C@H]1NC(=O)N(c2cc(Cl)cc(Cl)c2)C1=O [Example 22] | 0.4 | 125 to 250 | IC50 [1, 6]: < 16 µM; Assay to Detect SKW3 Cells Binding to FIBRONECTIN IC50 [3, 7]: No inh^c |
| CN1C(=O)N(c2cc(Cl)cc(Cl)c2)C(=O)[C@]1(C)Cc1ccc(Br)cc1 [Example 272] | – | 250 to 500 | IC50 ([1]; SKW3): 50 to 100 µM; Assay to Detect SKW3 Cells Binding to FIBRONECTIN IC50 [3, 4]: No inh^c |
| CN1C(=O)N(c2cc(Cl)cc(Cl)c2)C(=O)C1(C)Cc1ccc(C(=O)N2CCCCC2)cc1 (centres unmarked) [Example 259] | – | – | Kd [2]: 3.54 µM |
| C[C@@]1(Cc2ccc(Br)cc2)C(=O)N(c2cc(Cl)cc(Cl)c2)C(=O)N1Cc1ccc(C#N)cc1 [Example 115] | 0.24 | – | – |
| CN(C)C(=O)c1ccc(CC2(C)C(=O)N(c3cc(Cl)cc(Cl)c3)C(=O)N2C)cc1 (centres unmarked) [Example 258] | – | – | Kd [2]: 1.66 µM |
| O=C1NC(Cc2ccccc2)C(=O)N1c1cc(Cl)c(I)c(Cl)c1 (centres unmarked) [Example 71] | 4.38 | – | – |
| CC1(Cc2cccc(O)c2)NC(=O)N(c2cc(Cl)cc(Cl)c2)C1=O (centres unmarked) [Example 11] | 6.3 | – | – |
| C[C@@H](c1ccccc1)[C@@]1(C)C(=O)N(c2cc(Cl)cc(Cl)c2)C(=O)N1C [Example 270] | – | 250 to 500 | Kd [2]: 0.65 µM |
| CCCCOc1cc(CC2(C)NC(=O)N(c3cc(Cl)cc(Cl)c3)C2=O)nc(C(F)(F)F)c1 (centres unmarked) [Example 63] | ~3 | – | – |
| CC1(Cc2ccc(-c3ccc4ccccc4c3)cc2)NC(=O)N(c2cc(Cl)cc(Cl)c2)C1=O (centres unmarked) [Example 211] | – | – | Kd [2]: ~2 µM |
| CN1C(=O)N(c2cc(Cl)cc(Cl)c2)C(=O)C1(C)Cc1cccc(Cl)c1 (centres unmarked) [Example 155] | 0.51 | – | – |
| CC1(Cc2ccc(-c3ccccc3C(F)(F)F)cc2)NC(=O)N(c2cc(Cl)cc(Cl)c2)C1=O (centres unmarked) [Example 213] | – | – | Kd [2]: ~2 µM |

The next lines start with results.

| Kd [2, 5] [µM] | SMILES | Cellular Toxicity Assay MTT LD50 (SKW3 cells) [µM] | also measured |
| --- | --- | --- | --- |
| 0.27 | CC1(Cc2ccc(-c3ccc(Cl)s3)cc2)NC(=O)N(c2cc(Cl)cc(Cl)c2)C1=O (centres unmarked) [Example 199] | – | – |
| 0.25 | C[C@]1(Cc2cccc(-c3ccccc3)c2)NC(=O)N(c2cc(Cl)cc(Cl)c2)C1=O [Example 185] | – | – |
| 0.09 | CC1(Cc2ccc(-c3ccsc3)cc2)NC(=O)N(c2cc(Cl)cc(Cl)c2)C1=O (centres unmarked) [Example 196] | – | – |
